Data published in EP4268823A1, “COMPOUND FOR TREATING NEUROINFLAMMATION” (Universitätsklinikum Hamburg-Eppendorf, priority 2022, dated 2023).

Key:
[1] = tested on: primary neuronal cultures; assay: Cytosolic calcium imaging of glutamate-exposed neuronal cultures; type: cell-based, mouse; settings: glutamate-exposed neuronal cultures; UNC0642 pre-treated 24 hours; ferrostatin-1 10 min prior to glutamate
Description: (§1) For primary cortical cultures pregnant C57BL/6J, or G9afl/fl;Snap25-Cre mice were euthanized. To ensure comparability between genotypes, only embryos from heterozygous breeding's were used. Brainstem tissue of each embryo for genotyping was reserved and cortices were isolated, dissociated and cells were plated at a density of 1 × 10^5 cells per 1 cm^2 on poly-D-lysine-coated wells (5 µM Sigma-Aldrich, cat. no. A-003-M). If not stated otherwise, cells were maintained in neurobasal plus medium (supplemented with B27 plus, penicillin, streptomycin and L-glutamine; Gibco, cat. no. A3582901) at 37°C, 5% CO^2 and a relative humidity of 98%, and treated with 1 µM cytarabine (Sigma-Aldrich, cat. no. BP383) at 1 day in vitro (div) to inhibit glial cell proliferation. If no cytarabine was applied cells were maintained in PNBM medium (supplemented with neural cell survival factor, gentamycin and L-glutamine; Lonza). Throughout, cultures after 14-23 div were used for experiments. G9a inhibitor UNC0642 was used in a concentration of 1 µM and cultures were pre-treated 24 hours before further experimental procedures.
Primary neuronal cultures were seeded on Ibidi 60 µ-Dish Quad (cat. No. 80411) plates. Cultures were infected with an AAV7 containing pAAV-Syn-GCamp6f-WPRE-SV40 (86) (Addgene 100837) at 7-10 div with a 20,000-fold multiplicity of infection (MOI). AAV particles were produced according to the standard procedures of the UKE vector facility. Images were acquired with a confocal LSM 700 laser scanning confocal microscope (Zeiss) every 0.48 seconds with a 20× magnification in an imaging chamber maintaining 37 °C and 5% CO2. Infected cultures were imaged in the respective culture medium. Before applying the indicated chemicals, 5-10 min of baseline activity was first recorded. At the end of the recording, 8 µM ionomycin was applied to induce the maximum cellular calcium response that was used for normalization. For data analysis, mean fluorescence values of every cell were measured using Fiji software (NIH) and normalized to the maximal calcium response after ionomycin challenge. For each cell, mean AUC of the calcium response was calculated using a custom R script.

G9a = target: T1, G9a (Mus musculus, UniProt Q9Z148); assay: H3K9me2 / G9a immunofluorescence staining in primary neuronal cultures; type: cell-based; settings: for induction of H3K9me2 in response to glutamate: primary cortical cultures, glutamate toxicity
T1 construct: UNC0642 pre-treated primary neuronal cultures compared to respective controls; endogenous in cells; host or cells: primary mouse cortical neuronal cultures (C57BL/6J embryos)
T1 sequence (Q9Z148 1-1263): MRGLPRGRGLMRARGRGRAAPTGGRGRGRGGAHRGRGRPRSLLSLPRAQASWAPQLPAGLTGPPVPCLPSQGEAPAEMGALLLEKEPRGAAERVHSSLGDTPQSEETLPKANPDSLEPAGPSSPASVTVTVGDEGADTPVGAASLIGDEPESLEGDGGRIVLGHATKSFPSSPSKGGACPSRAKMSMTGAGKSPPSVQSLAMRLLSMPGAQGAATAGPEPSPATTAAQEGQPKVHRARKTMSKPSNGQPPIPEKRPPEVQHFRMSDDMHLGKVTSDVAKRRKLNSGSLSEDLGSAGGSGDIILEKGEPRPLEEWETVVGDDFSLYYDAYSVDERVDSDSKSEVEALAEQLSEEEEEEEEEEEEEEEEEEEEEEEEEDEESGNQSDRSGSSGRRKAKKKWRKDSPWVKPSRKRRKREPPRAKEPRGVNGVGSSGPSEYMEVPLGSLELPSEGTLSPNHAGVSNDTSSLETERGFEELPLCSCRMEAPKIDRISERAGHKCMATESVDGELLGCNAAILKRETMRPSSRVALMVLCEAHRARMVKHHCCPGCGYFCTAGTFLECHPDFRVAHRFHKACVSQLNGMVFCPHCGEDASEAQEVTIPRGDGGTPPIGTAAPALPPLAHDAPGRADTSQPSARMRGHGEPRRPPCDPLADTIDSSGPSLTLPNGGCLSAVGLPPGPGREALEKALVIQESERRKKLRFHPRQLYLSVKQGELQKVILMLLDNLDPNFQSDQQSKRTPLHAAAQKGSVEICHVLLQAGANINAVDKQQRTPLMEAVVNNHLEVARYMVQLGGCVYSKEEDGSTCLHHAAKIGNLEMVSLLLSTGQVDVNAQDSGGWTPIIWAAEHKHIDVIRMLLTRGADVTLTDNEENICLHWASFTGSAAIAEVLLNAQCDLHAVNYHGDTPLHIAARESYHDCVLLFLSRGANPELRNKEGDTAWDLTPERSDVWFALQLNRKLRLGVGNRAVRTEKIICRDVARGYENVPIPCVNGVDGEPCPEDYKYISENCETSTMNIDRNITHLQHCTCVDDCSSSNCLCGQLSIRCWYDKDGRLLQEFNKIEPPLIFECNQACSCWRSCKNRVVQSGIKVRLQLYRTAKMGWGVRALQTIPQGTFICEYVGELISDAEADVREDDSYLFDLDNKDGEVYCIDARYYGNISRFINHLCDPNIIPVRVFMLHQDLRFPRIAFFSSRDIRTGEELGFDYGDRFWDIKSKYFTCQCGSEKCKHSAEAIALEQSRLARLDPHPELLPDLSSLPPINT
Description: as §1
Immunocytochemistry was performed as described previously (15). HiPSC-neurons and mouse neurons were cultivated on 12 mm diameter cover slips or on 96-well plates suited for confocal microscopy, fixed with 4% paraformaldehyde (PFA), incubated in 10% normal donkey's serum (NDS) containing 0.25% Triton X-100, and subsequently immunolabeling was performed. Immunostainings were analyzed with a Zeiss LSM 700 confocal microscope.

[2] = tested on: primary cortical cultures; assay: RealTime-Glo cell viability assay, glutamate excitotoxicity; type: cell-based, mouse; settings: 20 µM glutamate-stimulated primary cortical cultures; UNC0642 1 µM pre-treated 24 hours
Description: as §1, with “G9a inhibitor UNC0642 was used in a concentration of 1 µM and cultures were pre-treated 24 hours before further experimental procedures.” left out
RealTime-Glo (Promega, cat. no. G9711) MT cell viability substrate and NanoLuc Enzyme was mixed together, added to neuronal cultures and incubated for 5 hours for equilibration of luminescence signal before respective treatments were applied. Luminescence was acquired with a Spark 10M multimode microplate reader (Tecan) at 37°C and 5% CO2 every 30 min over a total time period of 24 hours. […]

SMILES	toxic calcium accumulation (glutamate-induced calcium overload) [1]	induction of H3K9me2 in response to glutamate (G9a)	also measured
NCCC[C@](N)(C(=O)O)C(F)F [DFMO, alpha-difluoro-methylornithine]	rescued glutamate-induced calcium overload		
COC(=O)c1ccc(C2c3[nH]c4ccccc4c3CC(C(=O)OC)N2C(=O)CCl)cc1 (stereo not shown) [RSL3]			H3K9me2 immunofluorescence after cell death induction (G9a; primary cortical neurons, inducer alone vs. control): significant upregulation of H3K9me2
NC(CCCP(=O)(O)O)C(=O)O (stereo not shown) [AP5]		potently suppressed the induction of H3K9me2	cell viability [2]: rescued cellular survival
COC1=C(OC)C(=O)C(C/C=C(\C)CC/C=C(\C)CC/C=C(\C)CC/C=C(\C)CC/C=C(\C)CC/C=C(\C)CC/C=C(\C)CC/C=C(\C)CC/C=C(\C)CCC=C(C)C)=C(C)C1=O [coenzyme Q10]	rescued glutamate-induced calcium overload		
CCOC(=O)c1ccc(NC2CCCCC2)c(N)c1 [ferrostatin-1]	rescued glutamate-induced calcium overload		
O=C(O)CN(CCOCCOCCN(CC(=O)O)CC(=O)O)CC(=O)O [EGTA]		potently suppressed the induction of H3K9me2	
